Laboratory results as given in patent US20250332185A1, “Use of a New Therapeutic Combination to Treat Chronic Venous Insufficiency” (KÉRI PHARMA HUNGARY KFT., priority 2021, published 2025).
Like-named read-outs stand apart in the source and are kept apart here.

Legend:
[1] = test system: fasting homocysteine levels in healthy young women; conditions: healthy young women with normal homocysteine; folic acid 400 micrograms/day, vitamin B6 2 mg/day; daily for four weeks; cited from earlier work
[2] = test system: patients with venous circulatory disorders, CEAP stage 6 (leg ulcer); assay: Observation test 2: area of leg ulcer after 12 weeks of therapy; type: in vivo, human; conditions: median (25; 75 percentile); for change in ulcer size: 1st visit - 2nd visit (positive = reduction), 12 weeks; for ulcer size, Visit 2: after 12 weeks of therapy; for ulcer size, Visit 1: baseline before treatment
Experimental: Data from a total of 60 people were analysed retrospectively. Patients attending outpatient care consecutively who met the inclusion criteria were included in the retrospective analysis. Patients all had venous circulatory disorders with a severity of disease corresponding to CEAP stage 6. The male:female ratio in the analysed population was 1:2. The data of a total of four different patient groups were analysed as follows. • Group 1: patients taking 1000 mg of diosmin daily (n=30) • 15 patients had homocysteine levels below the risk threshold (<12.5 μmol/L, normal homocysteinemia group). • 15 patients had homocysteine levels above the risk threshold (>12.5 μmol/L hyperhomocysteinemia group) • Group 2: patients taking a daily combination of 1000 mg diosmin+3 mg folic acid+20 mg vitamin B6 (diosmin plus) (30 patients) • 15 patients had homocysteine levels below the risk threshold (<12.5 μmol/L normal homocysteinemia group). • 15 patients had homocysteine levels above the risk threshold (>12.5 μmol/L hyperhomocysteinemia group) • Group 3: patients taking a combination of 3 mg folic acid+20 mg vitamin B6 (diosmin plus) daily (30 patients) • 15 patients had homocysteine levels below the risk threshold (<12.5 μmol/L normal homocysteinemia group). • 15 patients had homocysteine levels above the risk threshold (>12.5 μmol/L hyperhomocysteinemia group)
The observation period was 12 weeks, during which time patients took the prescribed medication continuously. Before starting the medication treatment, a physical examination (to determine the CEAP stage of chronic venous insufficiency) and homocysteine level determination were performed. The area of the leg ulcer developed based on the venous circulatory disorder was also determined.
At the end of the 12-week observation period, the tests were repeated. For continuous variables, normality tests were performed. Variables with a normal distribution (age) were characterised by the mean+SD, variables with a non-normal distribution (homocysteine level at visits 1 and 2, leg ulcer area at visits 1 and 2) were characterised by the median (25; 75 percentile). For comparisons between two subgroups, the difference in the values of variables with normal distribution by subgroup was tested by t test, and the difference in the values of variables with non-normal distribution by subgroup was tested by chi-squared test.
The effectiveness of the therapy was characterised by the change in the area of the leg ulcer. Factors determining the change in ulcer size were analysed using simple and complex linear regression. In the composite model, age and gender were significant regressors. […] The fit of the final composite linear model was characterised using the Ramsey RESET test and the Breusch-Pagan/Cook-Weisberg test. Model fit is indicated by a value of p>0.05. The composite model was also stratified according to baseline homocysteine level (normal vs. low), to investigate the interaction between baseline homocysteine level and the therapy used.

homocysteine level [3] = assay: Observation test 2: homocysteine level determination; type: in vivo, human; conditions: median (25; 75 percentile); for homocysteine, Visit 2: after 12 weeks of therapy; for homocysteine, Visit 1: baseline before treatment, CEAP 6
Experimental: Data from a total of 60 people were analysed retrospectively. Patients attending outpatient care consecutively who met the inclusion criteria were included in the retrospective analysis. Patients all had venous circulatory disorders with a severity of disease corresponding to CEAP stage 6. The male:female ratio in the analysed population was 1:2. The data of a total of four different patient groups were analysed as follows. • Group 1: patients taking 1000 mg of diosmin daily (n=30) • 15 patients had homocysteine levels below the risk threshold (<12.5 μmol/L, normal homocysteinemia group). • 15 patients had homocysteine levels above the risk threshold (>12.5 μmol/L hyperhomocysteinemia group) • Group 2: patients taking a daily combination of 1000 mg diosmin+3 mg folic acid+20 mg vitamin B6 (diosmin plus) (30 patients) • 15 patients had homocysteine levels below the risk threshold (<12.5 μmol/L normal homocysteinemia group). • 15 patients had homocysteine levels above the risk threshold (>12.5 μmol/L hyperhomocysteinemia group) • Group 3: patients taking a combination of 3 mg folic acid+20 mg vitamin B6 (diosmin plus) daily (30 patients) • 15 patients had homocysteine levels below the risk threshold (<12.5 μmol/L normal homocysteinemia group). • 15 patients had homocysteine levels above the risk threshold (>12.5 μmol/L hyperhomocysteinemia group) The observation period was 12 weeks, during which time patients took the prescribed medication continuously. Before starting the medication treatment, a physical examination (to determine the CEAP stage of chronic venous insufficiency) and homocysteine level determination were performed. The area of the leg ulcer developed based on the venous circulatory disorder was also determined. At the end of the 12-week observation period, the tests were repeated. For continuous variables, normality tests were performed. Variables with a normal distribution (age) were characterised by the mean+SD, variables with a non-normal distribution (homocysteine level at visits 1 and 2, leg ulcer area at visits 1 and 2) were characterised by the median (25; 75 percentile). For comparisons between two subgroups, the difference in the values of variables with normal distribution by subgroup was tested by t test, and the difference in the values of variables with non-normal distribution by subgroup was tested by chi-squared test.

[4] = test system: patients with venous circulatory disorders, CEAP stage 2 and CEAP stage 3; assay: Observation test 1: CIVIQ-20 quality-of-life score after 12 weeks of therapy; type: in vivo, human; conditions: for CIVIQ change (score): Visit 1 score - Visit 2 score (negative = improvement), 12 weeks; for CIVIQ (score), Visit 2: after 12 weeks of therapy; for CIVIQ (score), Visit 2 / CIVIQ (score), Visit 1: mean ± SD; for CIVIQ (score), Visit 1: baseline before treatment
Experimental: The study analysed data from a total of 90 people retrospectively.
The analysis was based on consecutive patient data from outpatients who met the inclusion criteria. All patients had venous circulatory disorders, with severity of disease corresponding to CEAP stage 2 and CEAP stage 3. The male:female ratio in the population analysed was 1:2
In total, data from four different patient groups were examined: • Group 1: patients taking 1000 mg of diosmin daily (n=45)· • 30 subjects had homocysteine levels below the risk threshold (<12.5 μmol/L normal homocysteinemia group)· • 15 subjects had homocysteine levels above the risk threshold (>12.5 μmol/L hyperhomocysteinemia group) • Group 2: patients taking a daily combination of 1000 mg diosmin+6 mg folic acid+20 mg vitamin B6 (diosmin plus) (45 patients)· • 30 subjects had homocysteine levels below the risk threshold (<12.5 μmol/L normal homocysteinemia group)· • 15 subjects had homocysteine levels above the risk threshold (>12.5 μmol/L hyperhomocysteinemia group)
The observation period was 12 weeks, during which time patients took the prescribed medication continuously. Before starting the medication treatment, a physical examination (to determine the CEAP stage of chronic venous insufficiency) and homocysteine level determination were performed and a CIVIQ-20 questionnaire was filled out. At the end of the 12-week follow-up period, the tests were repeated. For continuous variables, normality testing was performed. Variables with a normal distribution (age, CIVIQ score at visits 1 and 2) were characterised by the mean+SD, while variables with a non-normal distribution (homocysteine level at visits 1 and 2) were characterised by the median (25; 75 percentile). Differences in the values of variables with normal distribution by subgroup was tested by t test, and difference in the values of variables with non-normal distribution by subgroup was tested by chi-squared test.
The factors determining the increase in CIVIQ score were analysed using simple and complex linear regression. In the composite model, age and gender were included as significant regressors. […] The fit of the final composite linear model was characterised using the Ramsey RESET test and the Breusch-Pagan/Cook-Weisberg test. Model fit is indicated by a value of p>0.05. The composite model was also stratified according to baseline homocysteine level (normal vs. low), to investigate the interaction between baseline homocysteine level and the therapy used.

homocysteine level [5] = assay: Observation test 1: homocysteine level determination; type: in vivo, human; conditions: median (25; 75 percentile); for homocysteine, Visit 2: after 12 weeks of therapy; for homocysteine, Visit 1: baseline before treatment, CEAP 2-3
Experimental: The analysis was based on consecutive patient data from outpatients who met the inclusion criteria. All patients had venous circulatory disorders, with severity of disease corresponding to CEAP stage 2 and CEAP stage 3. The male:female ratio in the population analysed was 1:2 In total, data from four different patient groups were examined: • Group 1: patients taking 1000 mg of diosmin daily (n=45)· • 30 subjects had homocysteine levels below the risk threshold (<12.5 μmol/L normal homocysteinemia group)· • 15 subjects had homocysteine levels above the risk threshold (>12.5 μmol/L hyperhomocysteinemia group) • Group 2: patients taking a daily combination of 1000 mg diosmin+6 mg folic acid+20 mg vitamin B6 (diosmin plus) (45 patients)· • 30 subjects had homocysteine levels below the risk threshold (<12.5 μmol/L normal homocysteinemia group)· • 15 subjects had homocysteine levels above the risk threshold (>12.5 μmol/L hyperhomocysteinemia group) The observation period was 12 weeks, during which time patients took the prescribed medication continuously. Before starting the medication treatment, a physical examination (to determine the CEAP stage of chronic venous insufficiency) and homocysteine level determination were performed and a CIVIQ-20 questionnaire was filled out. At the end of the 12-week follow-up period, the tests were repeated. For continuous variables, normality testing was performed. Variables with a normal distribution (age, CIVIQ score at visits 1 and 2) were characterised by the mean+SD, while variables with a non-normal distribution (homocysteine level at visits 1 and 2) were characterised by the median (25; 75 percentile). Differences in the values of variables with normal distribution by subgroup was tested by t test, and difference in the values of variables with non-normal distribution by subgroup was tested by chi-squared test.

[6] = test system: systolic blood pressure in untreated hypertensive patients; conditions: interval in brackets, cited from earlier work
[7] = test system: homocysteine levels in untreated hypertensive patients; conditions: cited from earlier work; for homocysteine levels increased by: end of 4.5-year treatment
[8] = test system: patients with venous ulcers; conditions: cited from earlier work
[9] = hyperhomocysteine group (>12.5 μmol/L)
[10] = normal homocysteine group (<12.5 μmol/L)

Cc1ncc(CO)c(CO)c1O.Cl [Vitamin B6, vitamin B6]
reduction of homocysteine levels [1]: no effect

COc1ccc(-c2cc(=O)c3c(O)cc(O[C@@H]4O[C@H](CO[C@@H]5O[C@@H](C)[C@H](O)[C@@H](O)[C@H]5O)[C@@H](O)[C@H](O)[C@H]4O)cc3o2)cc1O [diosmin]
change in ulcer size ([2]; hyperhomocysteine group): 2.61 (2.01; 3.29) cm^2 | change in ulcer size ([2]; normal homocysteine group): 1.11 (0.64; 2.26) cm^2 | ulcer size, Visit 2 ([2]; hyperhomocysteine group): 10.56 (10.28; 10.91) cm^2 | ulcer size, Visit 2 ([2]; normal homocysteine group): 7.09 (6.12; 7.67) cm^2 | ulcer size, Visit 1 ([2]; hyperhomocysteine group): 13.62 (12.44; 13.85) cm^2 | ulcer size, Visit 1 ([2]; normal homocysteine group): 8.11 (7.07; 8.73) cm^2 | homocysteine, Visit 2 (homocysteine level [3]; hyperhomocysteine group): 19.13 (18.75; 19.42) μmol/L | homocysteine, Visit 2 (homocysteine level [3]; normal homocysteine group): 10.89 (10.21; 11.17) μmol/L | homocysteine, Visit 1 (homocysteine level [3]; [9]): 20.73 (20.16; 21.21) μmol/L | homocysteine, Visit 1 (homocysteine level [3]; [10]): 11.82 (11.59; 12.24) μmol/L | CIVIQ change (score) ([4]; hyperhomocysteine group): −14.56 ± 15.86 score | CIVIQ change (score) ([4]; normal homocysteine group): −12.09 ± 1.23 score | CIVIQ (score), Visit 2 ([4]; hyperhomocysteine group): 79.71 ± 10.81 score | CIVIQ (score), Visit 2 ([4]; normal homocysteine group): 78.44 ± 8.75 score | CIVIQ (score), Visit 1 ([4]; hyperhomocysteine group): 65.14 ± 8.45 score | CIVIQ (score), Visit 1 ([4]; normal homocysteine group): 66.09 ± 9.91 score | homocysteine, Visit 2 (homocysteine level [5]; hyperhomocysteine group): 11.69 (11.52; 11.91) μmol/L | homocysteine, Visit 2 (homocysteine level [5]; normal homocysteine group): 7.39 (7.65; 7.80) μmol/L | homocysteine, Visit 1 (homocysteine level [5]; [9]): 14.74 (13.24; 15.79) μmol/L | homocysteine, Visit 1 (homocysteine level [5]; [10]): 8.00 (7.23; 8.83) μmol/L

CCOC(=O)[C@H](CCc1ccccc1)N[C@@H](C)C(=O)N1CCC[C@H]1C(=O)O [enalapril]
Reduction in systolic blood pressure ([6]; baseline homocysteine 10-<15 versus reference category <10): −0.77 (−1.53; −0.01) mm Hg | Reduction in systolic blood pressure ([6]; baseline homocysteine ≥15 versus reference category <10): −1.70 (−2.68; −0.72) mm Hg | homocysteine levels increased by ([7]; baseline homocysteine <10 μmol/L): 1.7 µmol/L | homocysteine levels increased by ([7]; baseline homocysteine between 10 and 15 μmol/L): 1.1 µmol/L | homocysteine levels decreased by ([7]; baseline homocysteine ≥15 μmol/L, median 4.5 years, 10 mg enalapril, 0.8 mg folic acid daily): 2.4 µmol/L

Nc1nc2ncc(CNc3ccc(C(=O)N[C@@H](CCC(=O)O)C(=O)O)cc3)nc2c(=O)[nH]1 [folic acid]
reduction of homocysteine levels [1]: 11.5% | ulcer healing ([8]; chronic venous ulcer disease with hyperhomocysteinemia): accelerated ulcer healing | cure rate ([8]; group A: hyperhomocysteinemia, folic acid 1.2 mg/day for 12 months plus basic treatment, group B basic treatment only 63·33%, P<0.05): 78.75%
